Test results as given in US9593108B2, “Compounds and methods for antiviral treatment” (PTC Therapeutics, Inc., priority 2009, dated 2017).
pIC50: −log10 of the molar value.

test system: not given; assay: not given; conditions: not given

Compound | melting point [°C]
CC(C)NS(=O)(=O)c1ccc(-c2c(C#N)c3cc(Cl)cnc3n2CC2CC2)cc1 [Cpd 1, 4-[5-chloro-3-cyano-1-(cyclopropylmethyl)-1H-pyrrolo[2,3-b]pyridin-2-yl]-N-(propan-2-yl)benzenesulfonamide] | 113 to 116
COc1cnc2c(c1)c(C#N)c(-c1ccc(S(=O)(=O)NC(C)C)cc1)n2CC1CC1 [Cpd 2, 4-[3-cyano-1-(cyclopropylmethyl)-5-methoxy-1H-pyrrolo[2,3-b]pyridin-2-yl]-N-(propan-2-yl)benzenesulfonamide] | 151 to 153

test system: HCV replicon RNA (GenBank Accession No. AJ242654); assay: HCV Replicon Assay (replicon RNA reduction and/or Fluc reporter signal); assay type: cell-based, Hepatitis C virus; conditions: Hepatitis C virus, 72 h, replicon-containing cells cultured with test compound for up to 3 days
Text: The lack of reliable and readily accessible cell-culture and small animal models permissive for HCV replication has limited the development of new anti-HCV agents. Self-replicating subgenomic HCV systems, termed HCV replicons, have been described and have been widely used to assess the efficacy of anti-HCV inhibitors (see Blight K J, et al., 2000, Efficient initiation of HCV RNA replication in cell culture. Science 290:1972-1974; Blight K J, et al., 2002, Highly permissive cell lines for subgenomic and genomic hepatitis C virus RNA replication. J Virol 76:13001-13014; Ikeda M, et al., 2002. Selectable subgenomic and genome-length dicistronic RNAs derived from an infectious molecular clone of the HCV-N strain of hepatitis C virus replicate efficiently in cultured Huh7 cells. J Virol 76:2997-3006; Lohmann V, et al., 1999, Replication of subgenomic hepatitis C virus RNAs in a hepatoma cell line. Science 285:110-113; Pietschmann T, et al., 2002, Persistent and transient replication of full-length hepatitis C virus genomes in cell culture. J Virol 76:4008-4021; and, Pietschmann T, et al., 2001, Characterization of cell lines carrying self-replicating hepatitis C virus RNAs. J Virol 75:1252-1264).
As described in U.S. Pat. No. 6,630,343, HCV inhibitors are analyzed in the bicistronic replicon by quantitating replicon RNA (GenBank Accession No. AJ242654) reduction and/or the Fluc reporter signal. Replicon-containing cells may be cultured with a test compound of the present invention for up to 3 days. Interferon (IFN) is used as a positive control. In general, the replicon IC50 values shown in Table 1 represent IC50 values determined by replicon RNA reduction.

Compound | pIC50
CC(C)NS(=O)(=O)c1ccc(-c2c(C#N)c3cc(Cl)cnc3n2CC2CC2)cc1 [Cpd 1, 4-[5-chloro-3-cyano-1-(cyclopropylmethyl)-1H-pyrrolo[2,3-b]pyridin-2-yl]-N-(propan-2-yl)benzenesulfonamide] | > 6.30
COc1cnc2c(c1)c(C#N)c(-c1ccc(S(=O)(=O)NC(C)C)cc1)n2CC1CC1 [Cpd 2, 4-[3-cyano-1-(cyclopropylmethyl)-5-methoxy-1H-pyrrolo[2,3-b]pyridin-2-yl]-N-(propan-2-yl)benzenesulfonamide] | > 6.30
CC1(NS(=O)(=O)c2ccc(-c3c(C(N)=O)c4cc(Cl)cnc4n3C3CCC3)nc2)CC1 [Cpd 366, 5-chloro-1-cyclobutyl-2-{5-[(1-methylcyclopropyl)sulfamoyl]pyridin-2-yl}-1H-pyrrolo[2,3-b]pyridine-3-carboxamide] | > 6.30
C[C@H](NS(=O)(=O)c1cnc(-c2c(C(N)=O)c3cccnc3n2C2CCC2)nc1)C(F)(F)F [Cpd 367, 1-cyclobutyl-2-(5-{[(2S)-1,1,1-trifluoropropan-2-yl]sulfamoyl}pyrimidin-2-yl)-1H-pyrrolo[2,3-b]pyridine-3-carboxamide] | 5.30 to 5.70
CC(C)(C)NS(=O)(=O)c1ccc(-c2c(C#N)c3cc(F)cnc3n2C2CCC2)cc1 [Cpd 369, N-tert-butyl-4-(3-cyano-1-cyclobutyl-5-fluoro-1H-pyrrolo[2,3-b]pyridin-2-yl)benzenesulfonamide] | 5.70 to 6.30
C[C@H](NS(=O)(=O)c1ccc(-c2c(C#N)c3cc(S(C)(=O)=O)cnc3n2C2CCC2)nc1)C(F)(F)F [Cpd 370, 6-[3-cyano-1-cyclobutyl-5-(methylsulfonyl)-1H-pyrrolo[2,3-b]pyridin-2-yl]-N-[(2S)-1,1,1-trifluoropropan-2-yl]pyridine-3-sulfonamide] | > 6.30
CC(C)(NS(=O)(=O)c1ccc(-c2c(C(N)=O)c3cc(C4CC4)cnc3n2C2CCC2)cc1)C(F)(F)F [Cpd 372, 1-cyclobutyl-5-cyclopropyl-2-{4-[(1,1,1-trifluoro-2-methylpropan-2-yl)sulfamoyl]phenyl}-1H-pyrrolo[2,3-b]pyridine-3-carboxamide] | > 6.30
NC(=O)c1c(-c2ccc(S(=O)(=O)NC3(C(F)(F)F)CC3)cn2)n(C2CCC2)c2ncc(C3CC3)cc12 [Cpd 374, 1-cyclobutyl-5-cyclopropyl-2-(5-{[1-(trifluoromethyl)cyclopropyl]sulfamoyl}pyridin-2-yl)-1H-pyrrolo[2,3-b]pyridine-3-carboxamide] | > 6.30
CC(C)(C)NS(=O)(=O)c1ccc(-c2c(C(N)=O)c3cc(C4CC4)cnc3n2C2CCC2)cc1 [Cpd 375, 2-[4-(tert-butylsulfamoyl)phenyl]-1-cyclobutyl-5-cyclopropyl-1H-pyrrolo[2,3-b]pyridine-3-carboxamide] | > 6.30
CCc1cnc2c(c1)c(C(N)=O)c(-c1ccc(S(=O)(=O)NC3(C(F)(F)F)CC3)cn1)n2C1CCC1 [Cpd 380, 1-cyclobutyl-5-ethyl-2-(5-{[1-(trifluoromethyl)cyclopropyl]sulfamoyl}pyridin-2-yl)-1H-pyrrolo[2,3-b]pyridine-3-carboxamide] | > 6.30
CCc1cnc2c(c1)c(C(N)=O)c(-c1ccc(S(=O)(=O)NC(C)(C)C)cc1)n2C1CCC1 [Cpd 381, 2-[4-(tert-butylsulfamoyl)phenyl]-1-cyclobutyl-5-ethyl-1H-pyrrolo[2,3-b]pyridine-3-carboxamide] | > 6.30
CCc1cnc2c(c1)c(C(N)=O)c(-c1ccc(S(=O)(=O)NC(C)(C)C)cn1)n2C1CCC1 [Cpd 382, 2-[5-(tert-butylsulfamoyl)pyridin-2-yl]-1-cyclobutyl-5-ethyl-1H-pyrrolo[2,3-b]pyridine-3-carboxamide] | 5.70 to 6.30
CSc1cnc2c(c1)c(C(=O)O)c(-c1ccc(S(=O)(=O)N[C@@H](C)C(F)(F)F)cn1)n2C1CCC1 [Cpd 386, 1-cyclobutyl-5-(methylsulfanyl)-2-(5-{[(2S)-1,1,1-trifluoropropan-2-yl]sulfamoyl}pyridin-2-yl)-1H-pyrrolo[2,3-b]pyridine-3-carboxylic acid] | 5.70 to 6.30
CSc1cnc2c(c1)c(C(N)=O)c(-c1ccc(S(=O)(=O)NC3(C(F)(F)F)CC3)cc1)n2C1CCC1 [Cpd 389, 1-cyclobutyl-5-(methylsulfanyl)-2-(4-{[1-(trifluoromethyl)cyclopropyl]sulfamoyl}phenyl)-1H-pyrrolo[2,3-b]pyridine-3-carboxamide] | > 6.30
CSc1cnc2c(c1)c(C(=O)O)c(-c1ccc(S(=O)(=O)NC3(C(F)(F)F)CC3)cc1)n2C1CCC1 [Cpd 390, 1-cyclobutyl-5-(methylsulfanyl)-2-(4-{[1-(trifluoromethyl)cyclopropyl]sulfamoyl}phenyl)-1H-pyrrolo[2,3-b]pyridine-3-carboxylic acid] | 5.70 to 6.30
CNc1cnc2c(c1)c(C#N)c(-c1ccc(S(=O)(=O)N[C@@H](C)C(F)(F)F)cn1)n2C1CCC1 [Cpd 394, 6-[3-cyano-1-cyclobutyl-5-(methylamino)-1H-pyrrolo[2,3-b]pyridin-2-yl]-N-[(2S)-1,1,1-trifluoropropan-2-yl]pyridine-3-sulfonamide] | > 6.30
N#Cc1c(-c2ccc(S(=O)(=O)NC3(C(F)(F)F)CC3)cc2)n(C2CCC2)c2ncc(C(F)(F)F)cc12 [Cpd 397, 4-[3-cyano-1-cyclobutyl-5-(trifluoromethyl)-1H-pyrrolo[2,3-b]pyridin-2-yl]-N-[1-(trifluoromethyl)cyclopropyl]benzenesulfonamide] | > 6.30
COc1cnc2c(c1)c(C(N)=O)c(-c1ccc(S(=O)(=O)NC3(C)CC3)cn1)n2C1CCCC1 [Cpd 410, 1-cyclopentyl-5-methoxy-2-{5-[(1-methylcyclopropyl)sulfamoyl]pyridin-2-yl}-1H-pyrrolo[2,3-b]pyridine-3-carboxamide] | 5.70 to 6.30
CC(C)(C)S(=O)(=O)Nc1ccc(-c2c(C(N)=O)c3cc(C(F)(F)F)cnc3n2C2CCCCC2)cc1 [Cpd 445, 2-{4-[(tert-butylsulfonyl)amino]phenyl}-1-cyclohexyl-5-(trifluoromethyl)-1H-pyrrolo[2,3-b]pyridine-3-carboxamide] | > 6.30
[C-]#[N+]c1cnc(-n2c(-c3ccc(S(=O)(=O)N[C@@H](C)C(F)(F)F)cn3)c(C#N)c3cc(C)cnc32)s1 [Cpd 451, 6-[3-cyano-1-(5-isocyano-1,3-thiazol-2-yl)-5-methyl-1H-pyrrolo[2,3-b]pyridin-2-yl]-N-[(2S)-1,1,1-trifluoropropan-2-yl]pyridine-3-sulfonamide] | > 6.30
CC(C)(NS(=O)(=O)c1ccc(-c2c(C#N)c3cc(C(F)F)cnc3n2C2CCC2)nc1)C(F)(F)F [Cpd 456, 6-[3-cyano-1-cyclobutyl-5-(difluoromethyl)-1H-pyrrolo[2,3-b]pyridin-2-yl]-N-(1,1,1-trifluoro-2-methylpropan-2-yl)pyridine-3-sulfonamide] | > 6.30
N#Cc1c(-c2ccc(S(=O)(=O)NC3(C(F)(F)F)CC3)cn2)n(C2CCC2)c2ncc(C(F)F)cc12 [Cpd 457, 6-[3-cyano-1-cyclobutyl-5-(difluoromethyl)-1H-pyrrolo[2,3-b]pyridin-2-yl]-N-[1-(trifluoromethyl)cyclopropyl]pyridine-3-sulfonamide] | > 6.30
